pIC50: −log10 of the molar value.
Target: nsp14 methyltransferase from SARS-CoV-2 (Severe acute respiratory syndrome coronavirus 2, UniProt P0DTD1)
Assay: Nsp14 MTase activity inhibition in vitro (EchoMS assay)
Format: biochemical
Settings: recombinant nsp14 protein expressed in E. coli; dose-response curve

Cc1noc(-c2ccccc2)c1CSC[C@H]1O[C@@H](n2nc(-c3cccc(C(N)=O)c3)c3c(N)ncnc32)[C@H](O)[C@@H]1O [Compound 221b, 3-(4-Amino-1-((2R,3R,4S,5S)-3,4-dihydroxy-5-((((3-methyl-5-phenylisoxazol-4-yl)methyl)thio)methyl)tetrahydrofuran-2-yl)-1H-pyrazolo[3,4-d]pyrimidin-3-yl)benzamide]
pIC50: 7.00 to 7.52

CCc1cn([C@@H]2O[C@H](CSCc3c(C)noc3-c3ccccc3)[C@@H](O)[C@H]2O)c2ncnc(N)c12 [Compound 142, (2R,3R,4S,5S)-2-(4-Amino-5-ethyl-7H-pyrrolo[2,3-d]pyrimidin-7-yl)-5-((((3-methyl-5-phenylisoxazol-4-yl)methyl)thio)methyl)tetrahydrofuran-3,4-diol]
pIC50: 7.00 to 7.52

Nc1ncnc2c1ccn2[C@@H]1O[C@H](CSCc2cnsc2-c2ccccc2)[C@@H](O)[C@H]1O [Compound 103c, (2R,3R,4S,5S)-2-(4-Amino-7H-pyrrolo[2,3-d]pyrimidin-7-yl)-5-((((5-phenylisothlazol-4-yl)methyl)thio)methyl)tetrahydrofuran-3,4-diol]
pIC50: 5.70 to 6.30

Cn1c(-c2ccccc2)nc(-c2ccccc2)c1CSC[C@H]1O[C@@H](n2ccc3c(N)ncnc32)[C@H](O)[C@@H]1O [Compound 120c, (2R,3R,4S,5S)-2-(4-Amino-7H-pyrrolo[2,3-d]pyrimidin-7-yl)-5-((((1-methyl-2,4-diphenyl-1H-imidazol-5-yl)methyl)thio)methyl)tetrahydrofuran-3,4-diol]
pIC50: 7.00 to 7.52

Cc1noc(-c2ccccc2)c1CSC[C@H]1O[C@@H](n2nc(C#Cc3cncnc3)c3c(N)ncnc32)[C@H](O)[C@@H]1O [Compound 218b]
pIC50: 7.00 to 7.52

Cc1noc(-c2ccccc2)c1CSC[C@H]1O[C@@H](n2cc(C(C)C)c3c(N)ncnc32)[C@H](O)[C@@H]1O [Compound 129b]
pIC50: 6.30 to 7.00

Cc1nsc(-c2ccccc2)c1CSC[C@H]1O[C@@H](n2cc(I)c3c(N)ncnc32)[C@H](O)[C@@H]1O [Compound 245, (2R,3R,4S,5S)-2-(4-Amino-5-iodo-7H-pyrrolo[2,3-d]pyrimidin-7-yl)-5-((((3-methyl-5-phenylisothiazol-4-yl)methyl)thio)methyl)tetrahydrofuran-3,4-diol]
pIC50: 7.00 to 7.52

Nc1ncnc2c1ccn2[C@@H]1O[C@H](CSCc2[nH]cnc2-c2ccccc2)[C@@H](O)[C@H]1O [Compound 104c, (2R,3R,4S,5S)-2-(4-Amino-7H-pyrrolo[2,3-d]pyrimidin-7-yl)-5-((((4-phenyl-1H-imidazol-5-yl)methyl)thio)methyl)tetrahydrofuran-3,4-diol]
pIC50: 5.70 to 6.30

CCCCCc1cn([C@@H]2O[C@H](CSCc3c(C)noc3-c3ccccc3)[C@@H](O)[C@H]2O)c2ncnc(N)c12 [Compound 132b, (2R,3R,4S,5S)-2-(4-Amino-5-pentyl-7H-pyrrolo[2,3-d]pyrimidin-7-yl)-5-((((3-methyl-5-phenylisoxazol-4-yl)methyl)thio)methyl)tetrahydrofuran-3,4-diol]
pIC50: 5.70 to 6.30

Cc1noc(-c2ccccc2)c1CSC[C@H]1O[C@@H](n2cc(C#Cc3nc4ccccc4[nH]3)c3c(N)ncnc32)[C@H](O)[C@@H]1O [Compound 179b, (2R,3R,4S,5S)-2-(5-((1H-Benzo[d]imidazol-2-yl)ethynyl)-4-amino-7H-pyrrolo[2,3-d]pyrimidin-7-yl)-5-((((3-methyl-5-phenylisoxazol-4-yl)methyl)thio)methyl)tetrahydrofiiran-3,4-diol]
pIC50: 6.30 to 7.00

Cc1ncnc(-c2ccccc2)c1CSC[C@H]1O[C@@H](n2cc(C#Cc3cncnc3)c3c(N)ncnc32)[C@H](O)[C@@H]1O [Compound 239c, (2R,3R,4S,5S)-2-(4-Amino-5-(pyrimidin-5-ylethynyl)-7H-pyrrolo[2,3-d]pyrimidin-7-yl)-5-((((4-methyl-6-phenylpyrimidin-5-yl)methyl)thio)methyl)tetrahydrofuran-3,4-diol]
pIC50: 7.00 to 7.52

Cc1ccc(-c2onc(C)c2CSC[C@H]2O[C@@H](n3cc(-c4ccc(C#N)cc4)c4c(N)ncnc43)[C@H](O)[C@@H]2O)cc1C [Compound 235b, 4-(4-Amino-7-((2R,3R,4S,5S)-5-((((5-(3,4-dimethylphenyl)-3-methylisoxazol-4-yl)methyl)thio)methyl)-3,4-dihydroxytetrahydrofuran-2-yl)-7H-pyrrolo[2,3-d]pyrimidin-5-yl)benzonitrile]
pIC50: 7.00 to 7.52

Cc1noc(-c2ccccc2)c1CSC[C@H]1O[C@@H](n2cc(C#Cc3cccc4ccccc34)c3c(N)ncnc32)[C@H](O)[C@@H]1O [Compound 175b, (2R,3R,4S,5S)-2-(4-Amino-5-(naphthalen-1-ylethynyl)-7H-pyrrolo[2,3-d]pyrimidin-7-yl)-5-((((3-methyl-5-phenylisoxazol-4-yl)methyl)thio)methyl)tetrahydrofuran-3,4-diol]
pIC50: 5.70 to 6.30

Cc1noc(-c2ccccc2)c1CSC[C@H]1O[C@@H](n2cc(F)c3c(N)ncnc32)[C@H](O)[C@@H]1O [Compound 128, (2R,3R,4S,5S)-2-(4-Amino-5-fluoro-7H-pyrrolo[2,3-d]pyrimidin-7-yl)-5-((((3-methyl-5-phenylisoxazol-4-yl)methyl)thio)methyl)tetrahydrofuran-3,4-diol]
pIC50: 6.30 to 7.00

Cc1noc(-c2ccccc2)c1CSC[C@H]1O[C@@H](n2cc(C#Cc3ccnnc3)c3c(N)ncnc32)[C@H](O)[C@@H]1O [Compound 173b]
pIC50: 7.52 to 8.00

Cc1noc(-c2ccccc2)c1CSC[C@H]1O[C@@H](n2cc(-c3ccnn3C)c3c(N)ncnc32)[C@H](O)[C@@H]1O [Compound 154]
pIC50: 7.00 to 7.52

Cc1noc(-c2ccccc2)c1CSC[C@H]1O[C@@H](n2nc(-c3ccc(CC#N)cc3)c3c(N)ncnc32)[C@H](O)[C@@H]1O [Compound 222b, 2-(4-(4-Amino-1-((2R,3R,4S,5S)-3,4-dlhydroxy-5-((((3-methyl-5-phenylisoxazol-4-yl)methyl)thio)methyl)tetrahydrofuran-2-yl)-1H-pyrazolo[3,4-d]pyrimidin-3-yl)phenyl)acetonitrile]
pIC50: 7.52 to 8.00

Cc1nc(N)c2ccn([C@@H]3O[C@H](CSCc4c(C)noc4-c4ccccc4)[C@@H](O)[C@H]3O)c2n1 [Compound 208, (2R,3R,4S,5S)-2-(4-Amino-2-methyl-7H-pyrrolo[2,3-d]pyrimidin-7-yl)-5-((((3-methyl-5-phenylisoxazol-4-yl)methyl)thio)methyl)tetrahydrofuran-3,4-diol]
pIC50: 7.00 to 7.52

Cc1nsc(-c2ccccc2)c1CSC[C@H]1O[C@@H](n2cc(C#Cc3cncnc3)c3c(N)ncnc32)[C@H](O)[C@@H]1O [Compound 238c, (2R,3R,4S,5S)-2-(4-Amino-5-(pyrimidin-5-ylethynyl)-7H-pyrrolo[2,3-d]pyrimidin-7-yl)-5-((((3-methyl-5-phenylisothiazol-4-yl)methyl)thio)methyl)tetrahydrofuran-3,4-diol]
pIC50: 7.00 to 7.52

COc1ccc(/C=C/c2cn([C@@H]3O[C@H](CSCc4c(C)noc4-c4ccccc4)[C@@H](O)[C@H]3O)c3ncnc(N)c23)cc1 [Compound 182b, (2R,3R,4S,5S)-2-(4-Amino-5-((E)-4-methoxystyryl)-7H-pyrrolo[2,3-d]pyrimidin-7-yl)-5-((((3-methyl-5-phenylisoxazol-4-yl)methyl)thio)methyl)tetrahydrofuran-3,4-diol]
pIC50: 7.00 to 7.52

Cc1noc(-c2ccccc2)c1CSC[C@H]1O[C@@H](n2nc(-c3cccc(C#N)c3)c3c(N)ncnc32)[C@H](O)[C@@H]1O [Compound 220b, 3-(4-Amino-1-((2R,3R,4S,5S)-3,4-dihydroxy-5-((((3-methyl-5-phenylisoxazol-4-yl)methyl)thio)methyl)tetrahydrofuran-2-yl)-1H-pyrazolo[3,4-d]pyrimidin-3-yl)benzonitrile]
pIC50: 6.30 to 7.00

Cc1onc(-c2ccccc2)c1CSC[C@H]1O[C@@H](n2ccc3c(N)ncnc32)[C@H](O)[C@@H]1O [Compound 48c, (2R,3R,4S,5S)-2-(4-Amino-7H-pyrrolo[2,3-d]pyrimidin-7-yl)-5-((((5-methyl-3-phenylisoxazol-4-yl)methyl)thio)methyl)tetrahydrofuran-3,4-diol]
pIC50: 6.30 to 7.00

Cc1noc(-c2ccccc2)c1CSC[C@H]1O[C@@H](n2cc(C#Cc3cnc(N)nc3)c3c(N)ncnc32)[C@H](O)[C@@H]1O [Compound 174b, (2R,3R,4S,5S)-2-(4-Amino-5-((2-aminopyrimidin-5-yl)ethynyl)-7H-pyrrolo[2,3-d]pyrimidin-7-yl)-5-((((3-methyl-5-phenylisoxazol-4-yl)methyl)thio)methyl)tetrahydrofuran-3,4-diol]
pIC50: 7.00 to 7.52

Cc1ncnc(-c2ccccc2)c1CSC[C@H]1O[C@@H](n2ccc3c(N)ncnc32)[C@H](O)[C@@H]1O [Compound 56c, (2R,3R,4S,5S)-2-(4-Amino-7H-pyrrolo[2,3-d]pyrimidin-7-yl)-5-((((4-methyl-6-phenylpyrimidin-5-yl)methyl)thio)methyl)tetrahydrofuran-3,4-diol]
pIC50: 6.30 to 7.00

Cc1noc(-c2ccccc2)c1CSC[C@H]1O[C@@H](n2cc(CC3CCCCC3)c3c(N)ncnc32)[C@H](O)[C@@H]1O [Compound 135b, (2R,3R,4S,5S)-2-(4-Amino-5-(cyclohexylmethyl)-7H-pyrrolo[2,3-d]pyrimidin-7-yl)-5-((((3-methyl-5-phenylisoxazol-4-yl)methyl)thio)methyl)tetrahydrofuran-3,4-diol]
pIC50: 5.70 to 6.30

Cc1noc(-c2ccccc2)c1CSC[C@H]1O[C@@H](n2cc(C#Cc3cccnc3)c3c(N)ncnc32)[C@H](O)[C@@H]1O [Compound 170b, (2R,3R,4S,5S)-2-(4-Amino-5-(pyridin-3-ylethynyl)-7H-pyrrolo[2,3-d]pyrimidin-7-yl)-5-((((3-methyl-5-phenylisoxazol-4-yl)methyl)thio)methyl)tetrahydrofuran-3,4-diol]
pIC50: 7.52 to 8.00

Cc1noc(-c2ccccc2)c1CSC[C@H]1O[C@@H](n2cc(C#Cc3ccccc3)c3c(N)ncnc32)[C@H](O)[C@@H]1O [Compound 180, (2R,3R,4S,5S)-2-(4-Amino-5-(phenylethynyl)-7H-pyrrolo[2,3-d]pyrimidin-7-yl)-5-((((3-methyl-5-phenylisoxazol-4-yl)methyl)thio)methyl)tetrahydrofuran-3,4-diol]
pIC50: 7.00 to 7.52
